Data: patent US20250074910A1, “MENIN INHIBITOR AND USE THEREOF” (HITGEN INC., priority 2021, published 2025)

Tests used:
[1] = Stability in human liver microsomes; type: in vitro ADME; conditions: 0.5 mg/mL microsomal protein, 1.00 μM compound, NADPH; for half-life at 1 μM: human, liver microsomes, pH 7.4, Human, read-out: Half life T1/2, human liver microsomes
Description: (§1) Test Example 3: Test of Stability of Compounds in Liver Microsome
(§2) Test purpose: To determine the stability of some of the compounds of the present disclosure in mouse, dog and human liver microsomes by LC-MS/MS method.
(§3) Test materials: The test drugs were in-house prepared example compounds of the present disclosure; the positive reference compound SNDX-5613 was prepared by the method of Example 253 in patent WO2017214367; the control compound 1 was prepared by the method of Example 64 in WO2017214367; liver microsomes were purchased from CORNING.
(§4) The total volume of each incubation system was approximately 45 μL, and the medium was 100 mM phosphate buffer (PBS, pH 7.4), including liver microsomal protein at a final concentration of 0.5 mg/mL, 1.00 μM compound and 2.00 mM NADPH, and the organic phase content was <1%. Incubation was performed in a 37° C. incubator, and 135 μL of ice-cold acetonitrile was added after 0, 5, 15, 30 and 60 min of reaction to terminate the reaction. The positive control group was incubated with 1.00 μM Ketanserin, 0.5 mg/mL liver microsomal protein and 2.00 mM NADPH in a 37° C. incubator for 0, 5, 15, 30 and 60 min respectively, and then 135 μL of ice-cold acetonitrile was added to terminate the reaction. The 96-well plates were shaken at 600 rpm for 10 min and then centrifuged at 4700 rpm at 4° C. for 15 min. 80 μL of supernatant was mixed with 320 μL of pure water, and the remaining amount of the compound was detected by LC-MS/MS method. The in vitro half life (T½) and intrinsic clearance (CLint) were calculated according to the following formula:
(§5) Intrinsic clearance (Clint)=(0.693/T1/2)×(1/liver microsome concentration)×conversion factor. k is the linear regression slope of the remaining percentage of the ln compound-incubation time.

MOLM-13 = test: Cell proliferation inhibition (CellTiter-Glo), MOLM-13; type: cell-based; conditions: Homo sapiens, MOLM-13, 168 h, MOLM-13 cells
Description: (§6) Test Example 2: Test of the Inhibitory Ability of Menin-MLL Interaction Inhibitors on Cell Proliferation
(§7) The inhibitory ability of the compounds of the present disclosure on the proliferation of tumor cell lines (including cell lines containing MLL fusion protein such as MV4-11, MOLM-13, THP-1 and NOMO-1, control cell lines without MLL fusion protein such as HL-60, K562 and MOLM-16, and cell lines containing NPM1 mutation such as OCI-AML3) was evaluated by using the cell viability analysis method. The cells were plated in 96-well plates at a certain concentration (e.g., 5,000-20,000 cells/well), and then an equal volume of culture medium containing 2 times the final concentration of the test compound (the final concentration ranging 10 from 1 nM to 10 μM) was added. The plates were placed in an incubator and cultured at 37° C. and 5% CO2 for 72-168 h. Before the test, an equal volume of CellTiter-Glo® Luminescent reagent was added, and the plate was incubated at room temperature for 10 min before detection using an ELISA reader (BMG LABTECH). The data were analyzed using GraphPad Prism software to obtain the IC50 value and compound fitting curve. The control compound 1 was prepared by referring to the method of Example 64 in WO2017214367.

OCI-AML3 = test: Cell proliferation inhibition (CellTiter-Glo), OCI-AML3 (NPM1 mutation); type: cell-based; conditions: Homo sapiens, OCI-AML-3, 168 h, OCI-AML3 cells
Description: as §6, §7

[2] = Stability in mouse liver microsomes; type: in vitro ADME; conditions: 1.00 μM compound, NADPH; for half-life at 1 μM: liver microsomes, pH 7.4, 0.5 mg/mL microsomal protein, read-out: Half life T1/2, mouse liver microsomes
Description: as §1, §2, §3, §4, §5

[3] = molecular target: Menin/MLL-4-43 peptide interaction (Homo sapiens (Human), UniProt O00255); test: Menin-MLL interaction inhibitory activity assay (fluorescence polarization competition); type: binding; conditions: FITC-MLL4-43-peptide, Menin recombinant protein
Menin/MLL-4-43 peptide interaction, sequence (O00255 whole entry, species assumed): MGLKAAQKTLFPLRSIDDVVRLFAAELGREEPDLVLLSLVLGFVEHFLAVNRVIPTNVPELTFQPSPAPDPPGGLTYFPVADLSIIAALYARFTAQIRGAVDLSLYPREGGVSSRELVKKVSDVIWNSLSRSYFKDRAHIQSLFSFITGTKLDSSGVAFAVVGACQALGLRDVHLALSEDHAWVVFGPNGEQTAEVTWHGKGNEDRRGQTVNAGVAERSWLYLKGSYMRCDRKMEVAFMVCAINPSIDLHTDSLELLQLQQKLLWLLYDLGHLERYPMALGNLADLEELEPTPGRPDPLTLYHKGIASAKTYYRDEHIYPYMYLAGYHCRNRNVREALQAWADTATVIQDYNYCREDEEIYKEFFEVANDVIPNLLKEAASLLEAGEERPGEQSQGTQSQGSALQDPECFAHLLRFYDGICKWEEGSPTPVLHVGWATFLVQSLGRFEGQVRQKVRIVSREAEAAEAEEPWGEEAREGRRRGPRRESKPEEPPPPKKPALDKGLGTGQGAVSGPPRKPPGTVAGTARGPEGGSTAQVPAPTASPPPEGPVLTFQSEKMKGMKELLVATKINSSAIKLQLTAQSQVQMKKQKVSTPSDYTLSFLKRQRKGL
Description: Test Example 1: Menin-MLL Interaction Inhibitory Activity Assay
The inhibition of Menin/MLL-4-43 peptide interaction by small molecule inhibitors was quantitatively detected by fluorescence polarization competition assay. The experiment was performed in a 384-well plate (Corning, Cat #3575) using a reaction buffer consisting of 50 mM Tris, pH 7.5, 50 mM NaCl, and 1 mM DTT. A 40 μL reaction system included 10 μL of 8 nM Menin recombinant protein and 10 μL of the test compound at different concentrations. The compound was pre-incubated with Menin protein for 15 min, and then 20 μL of 10 nM FITC-MLL4-43-peptide was added. After incubation on a shaker at 25° C. for 60 min, the fluorescence polarization signal (FP 485 520 520) was read using BMG PHERAStar detection. The experimental data was analyzed and processed by GraphPad Prism 6 software to obtain the IC50 value. The control compound 1 was prepared by referring to the method of Example 64 in WO2017214367.

MV4-11 = test: Cell proliferation inhibition (CellTiter-Glo), MV4-11; type: cell-based; conditions: MV4-11 cells
Description: as §6, §7

[4] = Stability in dog liver microsomes; type: in vitro ADME; conditions: dog, liver microsomes, pH 7.4, Dog; 0.5 mg/mL microsomal protein, 1.00 μM compound, NADPH; read-out: Half life T1/2, dog liver microsomes
Description: as §1, §2, §3, §4, §5

[5] = Pharmacokinetics test in mouse; type: in vivo, ICR mice; conditions: mice, p.o. 10 mg/kg; for AUC(0-t) / half-life / Cmax: male, ICR, mouse, plasma, po, 10 mg/kg; for Cmax: read-out: Cmax; for F, %: 1 mg/kg for intravenous injection
From the text: Test Example 4. In Vivo Pharmacokinetic Study
Test purpose: To determine the pharmacokinetic properties of some of the example compounds of the present disclosure in mice, rats and dogs after single intravenous injection (i.v.) and oral gavage (i.g.) administration by LC-MS/MS method.
Research methods: An appropriate amount of compound was weighed and prepared into a transparent clear solution of a certain concentration using 0.9% sodium chloride injection and 1.5 equivalents of 1M HCl aqueous solution based on the molar number of the compound. After SPF male ICR mice, SPF male SD rats, and male beagle dogs were fasted overnight, the test compound solution was given by intravenous injection and oral gavage at the corresponding dose. Anticoagulated whole blood of the test animals was collected at 5 min, 15 min, 30 min, 1 h, 2 h, 4 h, 8 h, and 24 h after administration, and plasma was separated. Plasma samples at each time point were detected by LC-MS/MS, and the plasma concentration of the compound was determined by the standard curve correction method. Phoenix WinNonlin 5.2 non-compartmental model was used to calculate the pharmacokinetic parameters of terminal elimination half-life (t½), blood peak concentration (Cmax), area under the concentration-time curve (AUC), clearance (CL), and bioavailability (F %), which was directly obtained from the serum concentration results. Blood drug concentration and pharmacokinetic parameters are expressed as mean±standard deviation (X±SD). The specific test protocols for each species are as follows.
Pharmacokinetics Test in Mouse
Test animals: SPF male ICR mice, weighing 25-30 g, 12 mice/compound, purchased from Chengdu Dossy Experimental Animal Co., Ltd.
Test design: On the day of the test, ICR mice were randomly divided into groups according to body weight, fasted but with free water for 12-14 h one day before administration, and fed 2 h after administration.
Preparation of test compound solution: The concentration of the test compound for oral gavage was 1 mg/mL. An appropriate amount of compound was weighed and prepared into a 1 mg/mL transparent clear solution using 0.9% sodium chloride injection and 1.5 equivalents of 1M HCl aqueous solution. The concentration of the test compound for intravenous injection was 0.2 mg/mL. The 1 mg/mL transparent clear solution was diluted to a concentration of 0.2 mg/mL using 0.9% sodium chloride injection. The volume of 1 M HCl solution added was calculated as: volume of 1 M HCl solution added […]=weighed amount of compound (mg)/molecular weight×1.5×1000. The amount added during preparation must not exceed the calculated value.
The test substance was administered as follows: intravenous injection: 1 mg/kg of dose, 5 mL/kg of volume, 6 mice; oral gavage: 10 mg/kg of dose, 10 mL/kg of volume, 6 mice.
Sample collection: Blood (40-50 μl) was collected in anticoagulant tubes sprayed with EDTA-K2 through the orbital venous plexus at 5 min, 15 min, 30 min, 1 h, 2 h, 4 h, 8 h, and 24 h after administration, and centrifuged at 10,000 rpm for 20 min within 1 h (the blood was saved on wet ice before and after centrifugation). The supernatant, which was plasma, was collected and frozen in a refrigerator at −20° C. or below for LC-MS/MS analysis of Full PK of male ICR mice (2 mice per group, 4 blood collection time points per mouse, crossover).

| SMILES | half-life at 1 μM [1] | GI50 (MOLM-13) | GI50 (OCI-AML3) | half-life at 1 μM [2] | IC50 [3] | GI50 (MV4-11; Homo sapiens, MV4-11, 72 h) | half-life at 1 μM [4] | AUC(0-t) [5] | half-life [5] | Cmax [5] | F, % [5] | Half life T1/2, human liver microsomes ([1]; Human) | Half life T1/2, mouse liver microsomes ([2]; 0.5 mg/mL microsomal protein) | GI50 (MV4-11; 72 h) |
| --- | --- | --- | --- | --- | --- | --- | --- | --- | --- | --- | --- | --- | --- | --- |
| [2H]C([2H])([2H])C1C[C@]2(CC[C@@H](CN3CCC4(CC3)CN(c3ncnnc3Oc3ccc(F)cc3C(=O)N(CC)C(C)C)C4)CC2)NC1=O (single isomer, unassigned) [Example 42-1] | 0.757 h | 216 nM | 111 nM | > 2 h | 15.3 nM | 45.4 nM | 1.33 h | – | – | – | – | – | – | – |
| CC(C)N(C(=O)c1cc(F)ccc1Oc1cncnc1N1CC2(CCN(C[C@H]3CC[C@]4(CC3)CC(C)(C)C(=O)N4)CC2)C1)C1CC1 [Example 23] | 0.605 h | 157 nM | 77.9 nM | 0.808 h | 12 nM | 20 nM | – | 2650 ng·h/mL | 2.52 h | 1510 ng/mL | 119% | – | – | – |
| CCN(C(=O)c1cc(F)ccc1Oc1nncnc1N1CC2(CCN(CC3CC4CCC3CC43CCC(=O)N3)CC2)C1)C(C)C (single isomer, unassigned) [Example 14-1a] | 0.955 h | – | – | > 2 h | 49.2 nM | 86.1 nM | – | – | – | – | – | – | – | – |
| CC(C)N(C(=O)c1cc(F)ccc1Oc1nncnc1N1CC2(CCN(CC3CCC4(CC3)COC(=O)N4)CC2)C1)C(C)C (stereo not shown) [Example 49] | – | 110 nM | 108 nM | – | 42 nM | 51.3 nM | – | 2320 ng·h/mL | 1.1 h | 1350 ng/mL | 77% | – | – | – |
| CCN(C(=O)c1cc(F)ccc1Oc1cncnc1N1CC2(CCN(C[C@H]3CC[C@@]4(CCC(=O)N4)CC3)CC2)C1)C(C)C [Example 1] | – | 580 nM | 277 nM | – | – | 76.2 nM | – | 5290 ng·h/mL | 1.51 h | 2480 ng/mL | 79% | – | – | – |

Further lines, results first:

| half-life at 1 μM [1] | GI50 (MOLM-13) | GI50 (OCI-AML3) | half-life at 1 μM [2] | IC50 [3] | GI50 (MV4-11; Homo sapiens, MV4-11, 72 h) | half-life at 1 μM [4] | AUC(0-t) [5] | half-life [5] | Cmax [5] | F, % [5] | Half life T1/2, human liver microsomes ([1]; Human) | Half life T1/2, mouse liver microsomes ([2]; 0.5 mg/mL microsomal protein) | GI50 (MV4-11; 72 h) | SMILES |
| --- | --- | --- | --- | --- | --- | --- | --- | --- | --- | --- | --- | --- | --- | --- |
| 0.78 h | – | – | > 2 h | 20.2 nM | 118 nM | 1.28 h | – | – | – | – | – | – | – | CC(C)N(C(=O)c1cc(F)ccc1Oc1nncnc1N1CC2(CCN(CC3CCC4(CC3)CN(C)C(=O)N4)CC2)C1)C(C)C (single isomer, unassigned) [Example 47-1] |
| – | – | – | – | 156 nM | – | – | – | – | – | – | 4.77 min | 3.75 min | 82.7 nM | CC(C)c1ncncc1-c1cc(F)ccc1Oc1cncnc1N1CC2(CN(CC3CCC4(CC3)OCCO4)C2)C1 [Control compound 1, reference compound] |
| – | 63.3 nM | 31.2 nM | – | 33.4 nM | – | – | 7770 ng·h/mL | 3.84 h | 2010 ng/mL | 72% | – | – | 55.2 nM | CC(C)N(C(=O)c1cc(F)ccc1Oc1cncnc1N1CC2(CCN(CC3CC4CCC3CC43CCC(=O)N3)CC2)C1)C(C)C (single isomer, unassigned) [Example 13-1b] |
| – | 12.8 nM | 21.2 nM | – | 6.3 nM | 12.2 nM | – | 4040 ng·h/mL | 1.34 h | 1960 ng/mL | 75% | – | – | – | COCC1(COC)C[C@]2(CC[C@@H](CN3CCC4(CC3)CN(c3ncncc3Oc3ccc(F)cc3C(=O)N(C(C)C)C(C)C)C4)CC2)NC1=O [Example 18] |
